The results in this text go back to US20170065952A1, “PICKERING EMULSION FORMULATIONS” (THE UNIVERSITY OF BIRMINGHAM, priority 2014, published 2017).

Structures are written as SMILES.

A short description of series [1]: Release of lipophilic active B (DMP) from O/W emulsion by dialysis into external water, UV-Vis. It is filed as physicochemical. The following applies: O/W emulsion (tripalmitin particles 2J, WPI), after 2 days of storage. The method, then: Solid lipid particles were prepared according to Example 2J. Tripalmitin matrix contained lipophilic active A (Sudan III) and were stabilised in aqueous dispersion by WPI.
O/W emulsions were prepared according to Example 4. A model lipophilic active B (DMP-dimethyl phthalate) was added to the sunflower oil included phase.
Known quantity of the O/W emulsion (e.g. 10 g) was placed inside a pre-hydrated cellulose tube and dialysed to a known quantity of distilled water (e.g. 100 g), termed “external” water/aqueous phase. An aliquot (ca. 1 mL) of the external water was taken at time intervals, pressed through a syringe filter (0.2 μm pore size) and analysed using UV-Vis spectroscopy (at λ=290 nm). Using previously obtained calibration line and the partitioning (sunflower oil/water) data of DMP, the concentration of the released active B was calculated.

How the values of series [2] were obtained:
Known quantity of the W/O emulsion (e.g. 45 g) was gently placed on the top of a known quantity of distilled water (e.g. 70 g) termed “external” water/aqueous phase. Calibrated conductivity probe was placed in the external aqueous phase and readings were taken on daily intervals.
(§1) Solid lipid particles were prepared according to Example 2C. Tripalmitin particles contained the lipophilic active (Sudan III) and were stabilised in the aqueous dispersion by Tween™ 20. After preparation the excess surfactant was dialysed off to distilled water.
W/O emulsions were prepared according to Example 3C, 3D and 3E. Hydrophilic active (NaCl) was added to the aqueous included phase and sunflower or silicone or mineral oils were used as the continuous phase.
The release of NaCl was measured as per Example 5.

A short description of series [3]: Release of lipophilic active (Sudan III) from W/O emulsion into external oil phase, UV-Vis. It is filed as physicochemical. Conditions: W/O emulsion Example 3C (tripalmitin particles 2C, Tween 20, sunflower oil continuous phase); burst release. Here is the method:
as §1

The nature of series [4]: Release of lipophilic active A (Sudan III) from O/W emulsion into external oil phase, UV-Vis. It is filed as physicochemical. The following applies: O/W emulsion (tripalmitin particles 2J, WPI, sunflower oil), observation period of 4 days.
Protocol: Known quantity of the O/W emulsion (e.g. 40 g) was placed in the beaker and gently topped up with a known quantity of sunflower oil (e.g. 50 g), termed “external” oil phase. An aliquot (ca. 1 mL) of the external oil phase was taken at time intervals, pressed through a syringe filter (0.2 μm pore size) and analysed using UV-Vis spectroscopy (at λ=510 nm). Using previously obtained calibration line, the concentration of the released active A was calculated.

For `COC(=O)c1ccccc1C(=O)OC` [DMP, dimethyl phthalate], the “release of active B from the dispersed sunflower oil phase” value in series [1] came out at 100%.
Regarding `[Cl-].[Na+]` [NaCl], the “release of hydrophilic active to external water phase” value in series [2] (W/O emulsion Example 3C, sunflower oil, over 17 days) was “very small”. Further, the “release of hydrophilic active upon heating” value in series [2] (W/O emulsion, heating to 40° C., fat crystals at interface melt) is listed as “all dispersed water phase with NaCl is delivered to the external water phase”. In addition, the “release of the internal water phase with NaCl” value in series [2] (water-in-mineral-oil emulsions (Example 3D), partially sintered particles) was “lower than for the non-sintered silicone oil emulsions and higher than the sintered sunflower oil emulsions”. The “release of NaCl to external water phase” value in series [2] (water-in-silicone-oil emulsions (Example 3E), non-sintered particles) is listed as “Relatively high release”.
As for `Oc1ccc2ccccc2c1N=Nc1ccc(N=Nc2ccccc2)cc1` [Sudan III], the “time of storage to complete release of lipophilic active” value in series [3] is no more than 10 h. In addition, the “release of active A from the lipid particles” value in series [4] is “below 1%”.
